The text below walks through data of article PMC11640836, “Aminomethylmorpholino Nucleosides as Novel Inhibitors of PARP1 and PARP2: Experimental and Molecular Modeling Analyses of Their Selectivity and Mechanism of Action” (International Journal of Molecular Sciences, 2024).

Series [1] deals with T1, PARP2 (Mus musculus, UniProt O88554).
T1 construct: made in house; host or cells: insect cells
The experiment in a line: PARP2 autopoly(ADP-ribosyl)ation (autoPARylation) enzyme assay with [32P]NAD+. It counts as biochemical, murine. The following applies: for remaining activity at 1000 µM: 5 min, 1 mM compound, autoPARylation reaction, read-out: Residual catalytic activity of PARP2 in the presence of a 1 mM compound; for IC50: 0.6 mM [32P]NAD+, means ±SDs of three independent experiments, read-out: IC50, PARP2 activity in the autoPARylation reaction. As to the method:
(§1) Human recombinant poly(ADP-ribose) polymerase 1 (PARP1) and murine poly(ADP-ribose) polymerase 2 (PARP2) were expressed in insect cells and purified as previously described. Radioactively labeled [^32P]NAD^+ was synthesized from [α-^32P]ATP, according to the previously developed method. The reaction of autopoly(ADP-ribosyl)ation was performed as follows. For PARP1, the reaction mixture contained 50 mM of Tris-HCl, a pH of 8.0, 10 mM of MgCl2, 150 mM of NaCl, 7 mM of β-mercaptoethanol, 2 A260/mL of activated DNA, 0.3 mM of [^32P]NAD^+, and 1 of the tested compounds. The reaction was initiated by adding PARP1 up to 200 nM, and the reaction mixtures were incubated at 37 °C for 2 min. For PARP2, the reaction mixture contained 50 mM of Tris-HCl, a pH of 8.0, 3 mM of spermine, 150 mM of NaCl, 7 mM of β-mercaptoethanol, 2 A260/mL of activated DNA, 0.6 mM of [^32P]NAD^+, and 1 of the tested compounds. The reaction was initiated by adding PARP2 up to 800 nM, and the reaction mixtures were incubated at 37 °C for 5 min. The tested compounds were added at six fixed concentrations, specified for each of them. The reaction was stopped by dropping 10 µL aliquots onto Whatman 1 filter papers soaked in 5% trichloroacetic acid (TCA). The filters were washed 4 times with 150 mL of 5% TCA and dried in the air after the removal of TCA with 90% ethanol. The introduction of radioactivity into the reaction product was quantified using a Typhoon FLA 9500 imager (GE Healthcare, Chicago, IL, USA). The half-maximal inhibitory concentration (IC50) values were determined using a six-point concentration response curve in three independent experiments.

For series [2], the target named is T2, PARP1 (Homo sapiens, UniProt P09874).
T2 construct: made in house; host or cells: insect cells
T2 sequence (P09874 whole entry): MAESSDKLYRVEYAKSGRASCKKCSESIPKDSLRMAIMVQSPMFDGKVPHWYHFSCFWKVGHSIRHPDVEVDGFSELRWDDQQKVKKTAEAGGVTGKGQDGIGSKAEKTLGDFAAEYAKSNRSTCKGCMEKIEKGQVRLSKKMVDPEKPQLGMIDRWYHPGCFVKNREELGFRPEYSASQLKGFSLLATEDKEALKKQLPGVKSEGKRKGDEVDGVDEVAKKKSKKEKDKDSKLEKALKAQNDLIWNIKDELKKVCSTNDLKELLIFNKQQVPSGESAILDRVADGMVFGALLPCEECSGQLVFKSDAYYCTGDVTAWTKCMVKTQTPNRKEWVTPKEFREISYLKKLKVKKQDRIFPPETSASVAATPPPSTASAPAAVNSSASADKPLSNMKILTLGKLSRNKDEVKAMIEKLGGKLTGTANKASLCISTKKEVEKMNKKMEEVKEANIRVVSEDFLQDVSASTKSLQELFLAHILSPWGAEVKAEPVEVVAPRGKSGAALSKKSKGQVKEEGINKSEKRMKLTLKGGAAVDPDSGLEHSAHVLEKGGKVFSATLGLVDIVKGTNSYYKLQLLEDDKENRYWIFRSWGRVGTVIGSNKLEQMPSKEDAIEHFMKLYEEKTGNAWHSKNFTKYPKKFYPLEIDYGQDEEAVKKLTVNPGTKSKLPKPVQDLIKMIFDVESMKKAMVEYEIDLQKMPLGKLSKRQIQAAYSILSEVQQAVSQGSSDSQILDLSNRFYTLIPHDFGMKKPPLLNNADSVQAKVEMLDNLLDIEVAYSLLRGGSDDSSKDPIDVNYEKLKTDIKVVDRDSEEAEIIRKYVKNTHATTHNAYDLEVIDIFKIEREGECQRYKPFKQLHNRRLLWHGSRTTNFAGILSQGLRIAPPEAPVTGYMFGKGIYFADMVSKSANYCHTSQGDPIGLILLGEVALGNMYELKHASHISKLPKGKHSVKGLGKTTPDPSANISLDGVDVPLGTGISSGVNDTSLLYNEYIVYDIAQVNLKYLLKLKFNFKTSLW
The experiment in a line: PARP1 autopoly(ADP-ribosyl)ation (autoPARylation) enzyme assay with [32P]NAD+. Type of series: biochemical. The settings on record: for IC50: 0.3 mM [32P]NAD+, means ±SDs of three independent experiments, read-out: IC50, PARP1 activity in the autoPARylation reaction. The procedure: as §1

Series [3] concerns PARP1. The settings on record: cited from earlier work.
The test system of series [4] is PARP2. The following applies: cited from earlier work.
In series [5] the target is T2, PARP1. Briefly: Steady-state kinetic analysis of the PARP1 enzymatic reaction. The settings on record: for Type of inhibition: Vmax decreased, KM increased. It counts as biochemical. As to the method:
The four efficient inhibitors of PARP1 (compounds 8, 12, 13, and 14) were further examined by detailed kinetic experiments to determine the type of inhibition and the inhibition constants. […] The kinetics experiments of the PARylation reaction were performed at varied concentrations of the NAD^+ substrate and three–four different fixed concentrations of the inhibitor. The kinetic parameters of the reaction (Vmax and KM) were calculated by fitting the Michaelis–Menten equation to the kinetic data. The type of inhibition was determined by analyzing the dependences of Vmax and KM on the concentration of the inhibitor in linearizing coordinates (Figure S3). All the compounds had decreased Vmax and increased KM values as the inhibitor concentration increased (panels A−E), indicating a mixed type of inhibition, which was further evidenced by the double reciprocal plots of kinetic data (panel F). From these experiments, the inhibition constants reflecting the affinity of inhibitors to the NAD^+ binding pocket of free enzymes were determined (Table 2).
To determine the apparent maximum rate of enzymatic reaction (Vmax), Michaelis constant (KM), and possible inhibition mechanism, steady-state kinetic experiments were performed at […] fixed concentrations of the substrate, in the absence and presence of different fixed concentrations of the inhibitor. The standard reaction mixtures (10 μL) contained 100 μM, 300 μM, 500 μM, 1 mM, or 2 mM NAD^+; a tested PARP1/PARP2 inhibitor specified for each compound (Figure S3); the recombinant human enzyme PARP1 (200 nM) or murine PARP2 (800 nM); and reaction buffer components (specified in the previous subsection). The reaction was performed as described in the previous subsection. The raw data (kinetic curves) were obtained in three independent experiments and statistically processed with OriginPro 8.6.0 software. […]
F) Graphical representation in double reciprocal plots. The inhibitor concentrations (µM) are indicated right to each panel.
Figure S3. Graphical representation of inhibition type determination for PARP1 and PARP2 with selected compounds.
The Ki and Ki(2) values presented in Table 2 in the main text and Table S1 were calculated using the equations:
Ki = Ci⁄ Ki (2) = CiV Vmax ∗ൗ−1
ቂ(Vmax Km )൘ቃ(Vmax ∗ Km ∗)⁄ −1 where Vmax (Vmax*) – maximal reaction velocity in th e absence (presence) of inhibitor; Km (Km*) – Michaelis constant in the absence (presence) of inhibitor; Ci – the inhibitor concentration.
(also on this page, place not known: Ci )⁄ (Vmax ∗ )⁄൘ቃ − Ki(2) Ci V ∗ൗ− 1 the Vmax KM 3000 0 1 0 250 [ 32 P]ADP-ribose, counts x 10 -3 NAD + ,)
(1 picture or pasted object on this page, not shown here)

The target in series [6] is T3, PARP2 (supplemented with HPF1 or not) (Mus musculus, UniProt O88554).
T3 construct: made in house; host or cells: insect cells (PARP2)
T3 sequence (O88554 whole entry): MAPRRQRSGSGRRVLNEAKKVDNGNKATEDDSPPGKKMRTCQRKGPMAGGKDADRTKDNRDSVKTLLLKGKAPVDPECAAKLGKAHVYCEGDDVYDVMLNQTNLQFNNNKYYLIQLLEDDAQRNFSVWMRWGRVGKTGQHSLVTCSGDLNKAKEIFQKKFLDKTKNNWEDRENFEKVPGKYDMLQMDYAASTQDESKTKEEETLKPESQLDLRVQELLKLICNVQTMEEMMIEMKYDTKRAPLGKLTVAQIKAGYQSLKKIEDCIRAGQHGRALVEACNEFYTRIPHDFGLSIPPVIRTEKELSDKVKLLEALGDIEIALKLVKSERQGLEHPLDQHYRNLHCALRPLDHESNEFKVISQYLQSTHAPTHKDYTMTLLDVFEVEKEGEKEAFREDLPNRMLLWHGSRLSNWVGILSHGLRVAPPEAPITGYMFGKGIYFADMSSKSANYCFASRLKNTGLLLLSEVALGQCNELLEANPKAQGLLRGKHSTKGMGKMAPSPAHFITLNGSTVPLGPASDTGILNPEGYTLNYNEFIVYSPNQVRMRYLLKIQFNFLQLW
Briefly: PARP2 inhibition in the absence and presence of HPF1 (automodification, SDS-PAGE). Type of series: biochemical, murine. The settings on record: 500 nM PARP2, 1 µM HPF1. As to the method:
PARP1/PARP2 autopoly(ADP-ribosyl)ation was performed in a standard 20 μL reaction mixture containing 50 mM of Tris-HCl, a pH of 8.0, 100 mM of NaCl, 10 mM of MgCl2, 1 mM of DTT, 10 µM of [^32P]NAD^+, 1 µM of gap-DNA (a 32-mer duplex with a medially located 1-nucleotide gap), 500 nM of PARP1/PARP2 (supplemented with 1 µM of HPF1 or not), and an inhibitor of interest at concentrations specified in Figure 4 and Figure S7. The reaction was initiated by adding a mixture of [^32P]NAD^+ and DNA to a protein-inhibitor mixture pre-assembled on ice. After incubating the mixtures at 37 °C for the indicated time periods, the reactions were terminated by the addition of an SDS-PAGE sample buffer and heating for 2 min at 90 °C. The reaction products were analyzed using 10% SDS-PAGE with the subsequent phosphor imaging of a Coomassie brilliant blue stained gel. Protein bands labeled with [^32P]ADP-ribose were quantified using Quantity One 4.6.7 Basic software. The residual activity (%) was determined as the level of PARP automodification in the presence of an inhibitor normalized to the respective level in the control sample containing no inhibitor.

For series [7], the system named is HeLa cell line (cervical cancer). The experiment in a line: Cell culture cytotoxicity assay (EZ4U/MTT), compounds alone and combined with hydrogen peroxide. The settings on record: for Effect (H2O2 + PARP inhibitor combo): Hela.
Procedure: The cytotoxicity of the compounds and their combinations with a DNA damaging agent were examined against human cells from the HeLa cell line (cervical cancer) using an EZ4U/MTT colorimetric test (Biomedica, Vienna, Austria). […] The cells were grown in 96-well plates in DMEM medium (Gibco, Thermo Fisher Scientific, Waltham, MA, USA), with 1x GlutaMAX (Gibco, Thermo Fisher Scientific, Waltham, MA, USA), 50 IU/mL penicillin, 50 μg/mL streptomycin (MP Biome-dicals, Santa Ana, CA, USA), and in the presence of 10% fetal bovine serum (Biolot, Saint Petersburg, Russia) in a 5% CO2 atmosphere. After the formation of a 30–50% monolayer, the tested compounds were added to the medium to final concentrations specified in Figure 2 and Figure S4, and the cell culture was monitored for 3 days. […] The combination index (CI) values were calculated using CompuSyn software version 1.0.
[8] abbreviates: mixed-type inhibition, read-out: Ki (affinity for the free enzyme).
Setting [9] is: read-out: Ki(2) (affinity for the enzyme complex with NAD+ substrate).

SMILES strings stand for the structures. Read-outs that look alike come from different tables or passages of the source. Some results are limits rather than exact numbers.

T1 sequence (O88554 whole entry): as above

In the case of `NC[C@@H]1CNC[C@H](n2cnc3c(N)ncnc32)O1` [Compound 7], the remaining activity at 1000 µM in series [1] is greater than 30%. The “Residual catalytic activity of PARP1 in the presence of a 1 mM compound” value (“Residual catalytic activity of PARP1” for short) in series [2] (autoPARylation reaction) is listed as greater than 30%.
Usually IC50 stands for the concentration at which inhibition is half-maximal. Regarding `NC[C@@H]1CNC[C@H](n2ccc(=O)[nH]c2=O)O1` [Compound 11], the remaining activity at 1000 µM in series [1] was greater than 30%. For the same compound, the IC50 in series [2] stood at 420 ± 66 µM.
`NC[C@@H]1CN(CC(=O)O)C[C@H](n2cnc3c(N)ncnc32)O1` [Compound 1]: the remaining activity at 1000 µM in series [1] was greater than 30%. Besides, the “Residual catalytic activity of PARP1” value in series [2] (autoPARylation reaction) is on record as greater than 30%.
As for `NC[C@@H]1CNC[C@H](n2cnc3c(=O)[nH]c(N)nc32)O1` [Compound 9], in series [1], the remaining activity at 1000 µM was greater than 30%. Besides, the “Residual catalytic activity of PARP1” value in series [2] (autoPARylation reaction) was greater than 30%.
Consider `NC[C@@H]1CN(CC(=O)O)C[C@H](n2cc(I)c(=O)[nH]c2=O)O1` [Compound 6, 2′-aminomethylmorpholino glycine 5-I-uracyl nucleoside], for which the values for the IC50 in series [1] and in series [2] were 142 ± 6 µM and 70 ± 12 µM, respectively.
Consider `NC[C@@H]1CN(CC(=O)O)C[C@H](n2ccc(=O)[nH]c2=O)O1` [Compound 5], for which the remaining activity at 1000 µM in series [1] is greater than 30%. The “Residual catalytic activity of PARP1” value in series [2] (autoPARylation reaction) is on record as greater than 30%.
On to `Cc1cn([C@@H]2O[C@H](CO)[C@@H](O)[C@H]2O)c(=O)[nH]c1=O` [rThd], for which the IC50 was 277 µM in series [3] and 374 µM in series [4].
For `NC[C@@H]1CN(CC(=O)O)C[C@H](n2cnc3c(=O)[nH]c(N)nc32)O1` [Compound 3], the remaining activity at 1000 µM in series [1] is greater than 30%. Moreover, the “Residual catalytic activity of PARP1” value in series [2] (autoPARylation reaction) is recorded as greater than 30%.
Usually Ki stands for a measure of affinity in units of concentration, obtained from inhibition or displacement. Consider `NC[C@@H]1CNC[C@H](n2cc(Br)c(=O)[nH]c2=O)O1` [Compound 13], for which the IC50 stood at 250 ± 37 µM in series [1] and 30 ± 3 µM in series [2]. Further, the Type of inhibition entry in series [5] is on record as “mixed-type inhibition”. The inhibition constant (Ki) stood at 25 ± 4 µM in series [5] (setting [8]) and 130 ± 30 µM in series [5] (setting [9]). In series [6], the “Impact of HPF1 on the inhibition potency against PARP2” value is listed as “no impact of HPF1”.
With `O=c1[nH]c(=O)n([C@@H]2O[C@H](CO)[C@@H](O)[C@H]2O)cc1I` [Compound 5-I-Urd], the values for the IC50 in series [3] and in series [4] were 49 µM and 27 µM, respectively.
`NC[C@@H]1CNC[C@H](n2ccc(N)nc2=O)O1` [Compound 10]: in series [1], the remaining activity at 1000 µM is greater than 30%. Also, the “Residual catalytic activity of PARP1” value in series [2] (autoPARylation reaction) is reported as greater than 30%. The “Effect (H2O2 + PARP inhibitor combo)” value was determined as 0.29 in series [7] (H2O2 30 μM + inhibitor 100 μM); 0.23 in series [7] (H2O2 30 μM + inhibitor 800 μM); 0.32 in series [7] (H2O2 50 μM + inhibitor 100 μM); 0.26 in series [7] (H2O2 50 μM + inhibitor 800 μM); 0.45 in series [7] (H2O2 90 μM + inhibitor 100 μM); 0.51 in series [7] (H2O2 90 μM + inhibitor 800 μM). The “Effect (H2O2 + PARP inhibitor combo)” value in series [7] (H2O2 150 μM + inhibitor 100 μM) is recorded as 0.66; in series [7] (H2O2 150 μM + inhibitor 800 μM), 0.64; in series [7] (H2O2 250 μM + inhibitor 100 μM), 0.78; in series [7] (H2O2 250 μM + inhibitor 800 μM), 0.87.
As to `Cc1cn([C@H]2CN(CC(=O)O)C[C@@H](CN)O2)c(=O)[nH]c1=O` [Compound 2], the concentration for half-maximal inhibition (IC50) in series [1] turned out to be 100 ± 12 µM; in series [2], 60 ± 14 µM.
Consider `NC[C@@H]1CNC[C@H](n2cc(Cl)c(=O)[nH]c2=O)O1` [Compound 12, aminomethylmorpholino 5-Cl-uracil nucleoside], for which the remaining activity at 1000 µM in series [1] is greater than 30%. Moreover, the Type of inhibition result in series [5] is “mixed-type inhibition”. Besides, the Ki in series [5] (setting [8]) turned out to be 79 ± 6 µM; in series [5] (setting [9]) it was 300 ± 60 µM. The IC50 in series [2] was determined as 45 ± 5 µM. The “Selectivity for PARP1 over PARP2 (IC50 comparison)” value in series [2] (autoPARylation reaction) is “highly selective PARP1 inhibitor”.
`NC[C@@H]1CN(CC(=O)O)C[C@H](n2ccc(N)nc2=O)O1` [Compound 4]: the remaining activity at 1000 µM in series [1] is greater than 30%. For the same compound, in series [2] (autoPARylation reaction), the “Residual catalytic activity of PARP1” value is listed as greater than 30%.
For the compound `O=C(c1cc(Cc2n[nH]c(=O)c3ccccc23)ccc1F)N1CCN(C(=O)C2CC2)CC1` [olaparib, reference compound], in series [4], the IC50 was […]. For the same compound, the “Effect (H2O2 + PARP inhibitor combo)” value in series [7] (H2O2 30 μM + inhibitor 30 μM) amounted to 0.32; in series [7] (H2O2 30 μM + inhibitor 50 μM), 0.42; in series [7] (H2O2 50 μM + inhibitor 30 μM) it was 0.51; in series [7] (H2O2 50 μM + inhibitor 50 μM), […]; in series [7] (H2O2 90 μM + inhibitor 30 μM), 0.6; in series [7] (H2O2 90 μM + inhibitor 50 μM), 0.7. For the same compound, the “Effect (H2O2 + PARP inhibitor combo)” value was found to be 0.85 in series [7] (H2O2 150 μM + inhibitor 30 μM), 0.9 in series [7] (H2O2 150 μM + inhibitor 50 μM), 0.96 in series [7] (H2O2 250 μM + inhibitor 30 μM) and 0.98 in series [7] (H2O2 250 μM + inhibitor 50 μM). Moreover, the “Effect on the cytotoxicity of hydrogen peroxide” value in series [7] (Hela cells, MTT test, H2O2 30 to 250 μM) is listed as “enhanced the cytotoxic effects of hydrogen peroxide”.
